Test results reported in ChEMBL document CHEMBL1909540, “Synthesis and antimycobacterial evaluation of 3a,4-dihydro-3H-indeno [1,2-c] pyrazole-2-carboxamide analogues” (Eur J Med Chem, 2011).
≈ marks a conversion by molar mass, not a printed value.

Legend:
Vero = test: Cytotoxicity against african green monkey Vero cells after 72 hrs by MTT assay; assay type: cell-based; settings: Chlorocebus sabaeus
[1] = test system: Mycobacterium tuberculosis; test: Antitubercular activity against Mycobacterium tuberculosis H37Rv by two fold serial dilution method; assay type: functional
[2] = Safety index, ratio of IC50 for african green monkey Vero cells to MIC for Mycobacterium tuberculosis H37Rv; assay type: toxicity, cell-based

**Q.** With COc1cc2c(cc1OC)C1=NN(C(=O)Nc3ccc(Cl)cc3)C(c3ccccc3)C1C2 (stereo not drawn) as the compound, how does the IC50 (Vero) read?
**A.** Its IC50 is over 139 µM.

**Q.** What about the MIC [1] of the same compound?
**A.** Its MIC is 6.97 µM (≈ 3.12 µg/mL).

**Q.** For COc1ccc(C2C3Cc4cc(OC)c(OC)cc4C3=NN2C(N)=O)cc1 (stereo not drawn), which MIC [1] is on record?
**A.** The MIC was 10.9 µM (≈ 3.99 µg/mL).

**Q.** For COc1cc2c(cc1OC)C1=NN(C(=O)Nc3ccc([N+](=O)[O-])cc3)C(c3ccccc3)C1C2 (stereo not drawn), which IC50 (Vero) is on record?
**A.** Its IC50 is 51.1 µM.

**Q.** What about the MIC [1] of the same compound?
**A.** The MIC was 6.81 µM (≈ 3.12 µg/mL).

**Q.** For COc1ccc(C2C3Cc4cc(OC)c(OC)cc4C3=NN2C(N)=O)cc1OC (stereo not drawn), which MIC [1] is on record?
**A.** The MIC was 10.1 µM (≈ 3.99 µg/mL).

**Q.** Which MIC [1] does the source give for COc1ccc(C2C3Cc4cc(OC)c(OC)cc4C3=NN2C(=O)Nc2ccc([N+](=O)[O-])cc2)cc1OC (stereo not drawn) here?
**A.** The MIC was 12.1 µM (≈ 6.25 µg/mL).

**Q.** Which MIC [1] does the source give for COc1cc2c(cc1OC)C1=NN(C(N)=O)C(c3ccncc3)C1C2 (stereo not drawn) here?
**A.** The MIC was 11.8 µM (≈ 3.99 µg/mL).

**Q.** With COc1cc2c(cc1OC)C1=NN(C(=O)Nc3ccc([N+](=O)[O-])cc3)C(c3ccc(F)cc3)C1C2 (stereo not drawn) as the compound, how does the IC50 (Vero) read?
**A.** The IC50 was 94.8 µM.

**Q.** And the MIC [1]?
**A.** The MIC was 3.16 µM (≈ 1.51 µg/mL).

**Q.** Which MIC [1] does the source give for COc1cc2c(cc1OC)C1=NN(C(N)=O)C(c3ccccc3Cl)C1C2 (stereo not drawn) here?
**A.** Its MIC is 10.8 µM (≈ 4 µg/mL).

**Q.** With COc1cc2c(cc1OC)C1=NN(C(=O)Nc3ccc([N+](=O)[O-])cc3)C(c3ccccc3Cl)C1C2 (stereo not drawn) as the compound, how does the MIC [1] read?
**A.** The MIC was 12.7 µM (≈ 6.25 µg/mL).

**Q.** Which results are given for COc1cc2c(cc1OC)C1=NN(C(N)=O)C(c3ccc(F)cc3)C1C2 (stereo not drawn)?
**A.** IC50 (Vero): 177 µM; MIC [1]: 8.44 µM (≈ 3 µg/mL)

**Q.** With COc1cc2c(cc1OC)C1=NN(C(=O)Nc3ccc(Cl)cc3)C(c3ccccc3Cl)C1C2 (stereo not drawn) as the compound, how does the MIC [1] read?
**A.** Its MIC is 13.9 µM (≈ 6.71 µg/mL).

**Q.** For COc1cc2c(cc1OC)C1=NN(C(=O)Nc3ccc(Cl)cc3)C(c3ccncc3)C1C2 (stereo not drawn), which IC50 (Vero) is on record?
**A.** Its IC50 is over 139 µM.

**Q.** And the MIC [1]?
**A.** Its MIC is 6.96 µM (≈ 3.12 µg/mL).

**Q.** Which MIC [1] does the source give for COc1ccc(C2C3Cc4cc(OC)c(OC)cc4C3=NN2C(=O)Nc2ccc([N+](=O)[O-])cc2)cc1 (stereo not drawn) here?
**A.** The MIC was 12.8 µM (≈ 6.24 µg/mL).

**Q.** Which MIC [1] does the source give for COc1ccc(C2C3Cc4cc(OC)c(OC)cc4C3=NN2C(=O)Nc2ccc(Cl)cc2)cc1OC (stereo not drawn) here?
**A.** The MIC was 9.8 µM (≈ 4.98 µg/mL).

**Q.** For COc1ccc(C2C3Cc4cc(OC)c(OC)cc4C3=NN2C(=O)Nc2ccc(Cl)cc2)cc1 (stereo not drawn), which MIC [1] is on record?
**A.** The MIC was 10.5 µM (≈ 5 µg/mL).

**Q.** With COc1cc2c(cc1OC)C1=NN(C(N)=O)C(c3ccccc3)C1C2 (stereo not drawn) as the compound, how does the MIC [1] read?
**A.** The MIC was 11.8 µM (≈ 3.99 µg/mL).

**Q.** Which results are given for COc1cc2c(cc1OC)C1=NN(C(=O)Nc3ccc(Cl)cc3)C(c3ccc(F)cc3)C1C2 (stereo not drawn)?
**A.** IC50 (Vero): > 134 µM; MIC [1]: 0.83 µM (≈ 0.387 µg/mL); selectivity ratio [2]: > 161

**Q.** Which IC50 (Vero) does the source give for NNC(=O)c1ccncc1 [ISONIAZID] here?
**A.** The IC50 was over 456 µM.

**Q.** And the MIC [1]?
**A.** The MIC was 0.56 µM (≈ 0.0768 µg/mL).

**Q.** With COc1cc2c(cc1OC)C1=NN(C(=O)Nc3ccc([N+](=O)[O-])cc3)C(c3ccncc3)C1C2 (stereo not drawn) as the compound, how does the IC50 (Vero) read?
**A.** The IC50 was 68 µM.

**Q.** What about the MIC [1] of the same compound?
**A.** Its MIC is 6.8 µM (≈ 3.12 µg/mL).
